Reference: patent US11104683B2, “Thioglycoluril compound, and method for producing same” (NISSAN CHEMICAL CORPORATION, priority 2016, dated 2021)

Assay: Solubility in solvents (PGME or PGMEA) commonly used in semiconductor device production
Assay type: physicochemical
Conditions: for Solubility (g/100 g-PGMEA): solvent propylene glycol 1-monomethyl ether 2-acetate (PGMEA); for Solubility (g/100 g-PGME): solvent propylene glycol 1-monomethyl ether (PGME)
Protocol: In order to examine the solubilities of TMOM-TGU produced in Example 2, TMOM-DTGU produced in Example 4, and TMOM-GU as Comparative Example, these compounds were dissolved in propylene glycol 1-monomethyl ether (PGME) or propylene glycol 1-monomethyl ether 2-acetate (PGMEA), each of which is a solvent commonly used in, for example, production processes for semiconductor devices.

COCN1C(=O)N(COC)C2C1N(COC)C(=O)N2COC (stereo not shown) [Comparative Example, 1,3,4,6-tetrakis(methoxymethyl)glycoluril, reference compound]
Solubility (g/100 g-PGMEA): 12.5 g/100 g-PGMEA
Solubility (g/100 g-PGME): 20 g/100 g-PGME

COCN1C(=O)N(COC)C2C1N(COC)C(=S)N2COC (stereo not shown) [Example 2, 1,3,4,6-tetrakis(methoxymethyl)monothioglycoluril]
solubility in a solvent (in words) (conclusion from Table 1 (PGME, PGMEA)): particularly excellent solubility
Solubility (g/100 g-PGMEA): 100 g/100 g-PGMEA
Solubility (g/100 g-PGME): 100 g/100 g-PGME

COCN1C(=S)N(COC)C2C1N(COC)C(=S)N2COC (stereo not shown) [Example 4, 1,3,4,6-tetrakis(methoxymethyl)dithioglycoluril]
Solubility (g/100 g-PGMEA): 25 g/100 g-PGMEA
Solubility (g/100 g-PGME): 20 g/100 g-PGME
